The values below are quoted from earlier work in US20250221905A1, “HAIR CARE COMPOSITION” (Conopco, Inc., d/b/a UNILEVER, priority 2022, published 2025).

For data set [1] the following is noted: supplier Croda.
In a further data set the test system is 5α-reductase. The conditions noted are these: background statement.

In the case of Oleth-20 [Brij O20], the HLB value in data set [1] was 15.5.
Turning to `CCCCCCCC(=O)NCC(=O)O` [Capryloyl glycine, N-(1-oxooctyl) glycine], the “sebum excess action modeled by 5α-reductase evaluation” value with 5α-reductase was “reduce sebum excess action”.
As for Steareth-2 [Brij S2], the HLB value in data set [1] is 4.9.
Polysorbate 85 [Tween 85]: the HLB value in data set [1] is 11.
